The record followed here is PubChem BioAssay (NCI).

Some test systems named below: A498 renal; HCC-2998 colon; HCT-15 colon; HOP-62 NSCLC; NCI-H522 lung; SNB-19 CNS; SW-620 colon; UO-31 renal.
Holding throughout (assay): NCI tumour cell line growth inhibition, 48 h

Values joined by “and” are separate entries in the source; they are usually repeats but may differ in a detail not shown here. Identical values can stand only once.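 Growth conditions: 96-well plates. Treatment: test compound, 48 hours, 5 concentrations. Analysis: linear interpolation between bracketing concentrations; unreached endpoints set to highest concentration. At the GI50, growth is halved. At the TGI there is no net growth.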

As for `CCc1ccc2c(c1)N(CCO)C1=C(C(=O)OC1)C2c1cc(OC)c(OC)c(OC)c1` (stereo not drawn), the GI50 in the assay with A498 renal is 0.103 µM; in the assay with HCC-2998 colon, 0.327 µM; in the assay on HCT-15 colon, 0.425 µM; in the assay on HOP-62 NSCLC, 0.207 µM; in the assay on NCI-H522 lung, 0.0837 µM; with SNB-19 CNS, 0.263 µM. Moreover, the GI50 in the assay on SW-620 colon was 0.168 µM; in the assay on UO-31 renal, 0.457 µM. Also, the TGI in the assay on A498 renal is 0.932 µM; in the assay on HCC-2998 colon, over 10.3 µM; in the assay with HCT-15 colon, over 50 µM; with HOP-62 NSCLC, over 50 µM; in the assay on NCI-H522 lung it was 0.26 µM; in the assay with SNB-19 CNS, over 50 µM. The TGI in the assay on SW-620 colon and in the assay with UO-31 renal was over 50 µM each time.
In the case of `O=C1Nc2ccc3c(c2/C1=C\c1cc2c(cc1Br)OCO2)OCO3`, the GI50 in the assay on A498 renal is 0.287 µM; in the assay with HCC-2998 colon it was 1.65 µM; in the assay on HCT-15 colon, 0.515 µM; with HOP-62 NSCLC, 0.393 µM; with NCI-H522 lung it was 0.369 µM; in the assay on SNB-19 CNS, 0.552 µM. For the same molecule, the GI50 in the assay with SW-620 colon is 0.357 µM; in the assay on UO-31 renal, 0.191 µM. Besides, the TGI is 1.08 µM in the assay with A498 renal; over 100 µM in the assay with HCC-2998 colon; over 100 µM in the assay with HCT-15 colon; 2.07 µM with HOP-62 NSCLC; 8.17 µM in the assay on NCI-H522 lung; 7.04 µM in the assay on SNB-19 CNS. Further, the TGI came out at 3.47 µM in the assay with SW-620 colon and 2.13 µM with UO-31 renal.
Take `CCOC(=O)c1c(CN2CCN(C)CC2)nc2ccc(Cl)cc2c1-c1ccccc1`: the GI50 in the assay with A498 renal is 4.75 µM; in the assay on HCC-2998 colon, 1.86 µM; in the assay on HCT-15 colon, 5.42 µM; with HOP-62 NSCLC it was 11.2 µM; with NCI-H522 lung, 11.7 µM; in the assay with SNB-19 CNS it was 12.7 µM. For the same molecule, the GI50 is 9.35 µM in the assay with SW-620 colon and 5.98 µM in the assay on UO-31 renal. In addition, the TGI stood at 17.2 µM in the assay with A498 renal; 4.4 µM with HCC-2998 colon; 20.9 µM with HCT-15 colon; 25 µM in the assay with HOP-62 NSCLC; 25.3 µM in the assay on NCI-H522 lung; 25.6 µM in the assay with SNB-19 CNS. For the same molecule, the TGI in the assay on SW-620 colon was 21.6 µM; in the assay on UO-31 renal it was 19.5 µM.
For `C[C@@H]1CCc2ncc(F)cc2[C@H]2CCCN2c2ccn3ncc(c3n2)C(=O)N1`, the GI50 is 12.9 µM in the assay on A498 renal; over 100 µM with HCC-2998 colon; 77.1 µM in the assay with HCT-15 colon; 60 µM in the assay on HOP-62 NSCLC; 83.7 µM in the assay on NCI-H522 lung; over 100 µM in the assay with SNB-19 CNS. Besides, the GI50 was over 100 µM with SW-620 colon and 29.8 µM in the assay on UO-31 renal. The TGI is 42.2 µM in the assay with A498 renal; over 100 µM in the assay on HCC-2998 colon; over 100 µM with HCT-15 colon; over 100 µM in the assay on HOP-62 NSCLC; over 100 µM with NCI-H522 lung; over 100 µM with SNB-19 CNS. Further, the TGI in the assay on SW-620 colon and in the assay on UO-31 renal was over 100 µM in each case.
`NC(=O)/C(=C/n1cnc(-c2cc(C(F)(F)F)cc(C(F)(F)F)c2)n1)c1cncnc1`: the GI50 was 0.0848 µM in the assay on A498 renal; 0.74 µM with HCC-2998 colon; 0.286 µM with HCT-15 colon; 1.06 µM with HOP-62 NSCLC; 0.331 µM in the assay on NCI-H522 lung; 0.654 µM in the assay on SNB-19 CNS. The GI50 was 0.175 µM with SW-620 colon and 0.426 µM with UO-31 renal. Also, the TGI in the assay with A498 renal was determined as 1.26 µM; in the assay on HCC-2998 colon, 5.34 µM; with HCT-15 colon, 6.93 µM; in the assay with HOP-62 NSCLC, 17.2 µM; in the assay with NCI-H522 lung, 4.33 µM; in the assay with SNB-19 CNS, 15 µM. For the same molecule, the TGI with SW-620 colon worked out at 7.03 µM; in the assay with UO-31 renal, 12.8 µM.
`N#Cc1cc(S(=O)(=O)Nc2nc3cc(Cl)ccc3o2)c(SCc2ccccc2)cc1Cl`: the GI50 in the assay with A498 renal was 11.5 µM; in the assay with HCC-2998 colon it was 12.6 µM; in the assay on HCT-15 colon, 16.2 µM; in the assay with HOP-62 NSCLC it was 12.3 µM; in the assay with NCI-H522 lung it was 11.6 µM; with SNB-19 CNS, 13.6 µM. Also, the GI50 with SW-620 colon was 11.7 µM; with UO-31 renal, 12.3 µM. Besides, the TGI in the assay with A498 renal came to 23.6 µM; in the assay with HCC-2998 colon it was 25.1 µM; in the assay with HCT-15 colon, 29.7 µM; with HOP-62 NSCLC it was 24.8 µM; in the assay with NCI-H522 lung, 25 µM; in the assay with SNB-19 CNS it was 26.5 µM. The figures for the TGI in the assay with SW-620 colon and in the assay with UO-31 renal were 23.9 µM and 24.7 µM, respectively.
For the molecule `CC(=O)OCC1OC(n2c3c(cc(C#N)c2=S)CCCC3)C(OC(C)=O)C(OC(C)=O)C1OC(C)=O` (stereo not drawn), the TGI in the assay on A498 renal is over 100 µM; in the assay with HCC-2998 colon it was over 100 µM; with HCT-15 colon, over 100 µM; with HOP-62 NSCLC, > 100 µM and 51.5 µM; in the assay with NCI-H522 lung, > 100 µM and 98.7 µM; in the assay on SNB-19 CNS it was > 100 µM and 54.4 µM. Also, the TGI in the assay on SW-620 colon and in the assay with UO-31 renal was over 100 µM each time. The GI50 was 41.3 µM and > 100 µM with HCC-2998 colon; 83.3 µM and 19.9 µM in the assay with HOP-62 NSCLC; > 100 µM and 21.5 µM with SNB-19 CNS; 44.6 µM and > 100 µM in the assay with SW-620 colon.
